Data published in patent US7879792B2, “Synthetic peptide inhibitors of thrombin and thrombin activation of protease activated receptors 1 and 4” (The Regents of the University of Michigan, priority 2005, dated 2011).
Like-named read-outs stand apart in the source and are kept apart here. Where a SMILES comes first, the peptide text is derived from it.

How the values were obtained:
[1] = target: human α-thrombin (Homo sapiens, UniProt P00734); experiment: inhibition of α-thrombin hydrolysis of chromogenic substrate; assay type: biochemical; settings: Ki (μM) + SD, αIIa (2 nM), alpha-thrombin 2 nM, Sar-Pro-Arg-paranitroanilide
[2] = stability testing in intestinal homogenate; assay type: in vitro ADME; settings: rat
Method: (§1) Stability testing of the various compounds was performed in buffer, intestinal perfusate, and an intestinal homogenate preparation to assess the potential oral availability of these compounds. Initial studies prepared the tissue for stability studies. The buffer used in stability testing is 10 mM MES (pH 6.5) containing 135 mM NaCl, and 5 mM KCl. To collect intestinal perfusate from rats, male Sprague Dawley rats, 8 to 10 weeks old, weighing 250 to 350 g were fasted 15 to 18 hours with water given ad libitum. Anesthesia was administered by intramuscular injection of pentobarbital/ketamine (40 mg/kg and 80 mg/kg, respectively). The rats were placed on a warming pad under a surgical lamp to maintain body temperature and jejunal intestinal segments were exposed through a midline, abdominal incision. Approximately 20 cm segment of the jejunum (2 to 4 cm distal to the ligament of Treitz) was cannulated and the intestinal segments were perfused with 10 mM MES (pH 6.5) containing 135 mM NaCl, and 5 mM KCl at a flow-rate of 0.5 ml/min at 37° C. using a constant infusion pump (Harvard Apparatus, South Natick, Mass.). The collected perfusate was stored at −80° C. until use for ex vivo stability studies. After collection, the perfused intestinal segments were flushed with ice-cold 0.15 M KCl solution and the animal was euthanized and the jejunal intestinal segment detached. The inner intestinal tissue layers are scraped out and homogenized in MES buffer (pH 6.5) in a ratio of 1 part of intestinal tissue to 5 parts buffer. Total protein content of the perfusate and the homogenate were determined using a Biorad protein assay kit. The intestinal homogenate samples were used immediately or rapidly frozen at −80° C. until stability analysis.
(§2) The actual stability testing protocol is as follows: A 0.1 ml aliquot of the synthetic peptide solution (1 mg/ml) was added to 0.9 ml of MES buffer, pH 6.5, intestinal perfusate, or intestinal homogenate at 37° C. Samples were mixed by vortexing and 100 microliter aliquots were removed over a 60 to 90 minute period for analysis of breakdown products. The 100 microliter sample aliquots were diluted 10 fold with water and subjected to solid phase extraction using a Waters Oasis HLB column. Briefly, the columns were preconditioned by passing 1 ml of MeOH and 1 ml of water over the column, and 1 ml of sample was added to the column. The column was washed with 5% methanol:95% water solution to remove proteins and salts, then eluted with 1 ml of 100% methanol. The methanol was removed by vacuum, and the sample was reconstituted in mobile phase for LC/MS/MS analysis.
(§3) LC/MS/MS analysis was performed on a HP1100 HPLC (Hewlett Packard) interfaced with a Quattro II MS/MS detector (Waters/Micromass). For the HPLC separation, a 10 μL aliquot of sample in a mobile phase consisting of an equal volume mixture of acetonitrile/water containing 0.5% formic acid was injected onto a 150 mm×2.2 mm, 5 μm C8 column (Higgins Analytical Inc) and developed at a flow rate of 0.2 ml/min for 5 minutes. The MS detector was used in single ion recording mode at a cone voltage of 50 Volts.

[3] = stability testing in MES buffer (pH 6.5); assay type: physicochemical; settings: 37° C., read-out: t1/2 (min) MES Buffer (pH 6.5)
Method: as §1
The actual stability testing protocol is as follows: A 0.1 ml aliquot of the synthetic peptide solution (1 mg/ml) was added to 0.9 ml of MES buffer, pH 6.5, intestinal perfusate, or intestinal homogenate at 37° C. Samples were mixed by vortexing and 100 microliter aliquots were removed over a 60 to 90 minute period for analysis of breakdown products. […]

[4] = stability testing in intestinal perfusate; assay type: in vitro ADME; settings: rat, 37° C.
Method: as §1, §2, §3

[5] = rat intestinal in situ perfusion permeability; assay type: in vivo; settings: rat
Method: To determine the intestinal permeability of the various peptide analogs, male albino Sprague-Dawley rats, 9-10 weeks old and weighing 250-350 g were fasted for 18 hours with free access to water. The rats were anesthetized with an intramuscular injection of ketamine/xylazine/butorphanol (87 mg/kg, 6 mg/kg, and 0.2 mg/kg body weight, respectively). The abdomen was opened by a 4-5 cm midline incision and a 10 cm jejunal segment was cannulated on two ends and connected to a syringe pump that pumps the perfusing solution through the cannulated intestine at a constant rate and at a temperature of 37° C. The isolated segment was rinsed with 10 mM MES (pH 6.5) at a flow-rate of 0.5 ml/min in order to clean out any residual debris. Jejunal perfusion was subsequently performed with the same buffer containing 135 mM NaCl, 5 mM KCl and 0.01% PEG 4000 at a flow rate of 0.2 ml/min containing test compound, internal permeability reference standards (e.g., metoprolol) and ^14C-PEG 4000 as a non-absorbable marker for measuring water flux. After steady-state is reached within the perfused intestinal segment, typically 30 minutes after start of perfusion, samples were taken at 10 minute intervals for 1 hour. ^14C (PEG-4000) levels are assayed by scintillation counting and test compounds and internal permeability standard analysis by LC/MS/MS. Samples are frozen and stored at −80° C. until analysis.
The effective permeability (Peff) determined from the in situ perfusion is calculated from equation 1
[formula] where Q is the perfusion buffer flow rate, C′out is the outlet concentration of the compound that has been adjusted for water transport (equation 2) after passing through the intestinal segment, C′in is the inlet or starting concentration of the compound, R is the radius of the intestinal segment (set to 0.2 cm) and L is the length of the intestinal segment. To correct for water transport, a non-absorbed radioactive tracer, ^14C PEG-4000, is included in the perfusion buffer. The Cout/Cin ratio is corrected for water transport according to equation 2:
[formula] where Aout-A0 is equal to the radioactivity counts in the outlet sample minus background (dpm) and Ain-A0 is equal to the radioactivity counts in the inlet sample minus background (dpm).
In certain instances, in addition to perfusing the intestinal segment as described, plasma is drawn through a portal vein cannula to determine the amount of material entering the portal system during the perfusion. This additional experimental step can aid in determining the true intestinal permeability of unstable compounds. After steady state conditions are reached as described above, 0.5 ml aliquots of plasma are withdrawn from the portal vein at regular intervals throughout the experimental time frame. The plasma samples are deproteinated with acetonitrile and the sample is subjected to SPE and LC/MS analysis as described above. From the plasma concentration of compound, the mesenteric permeability can be determined by substitution into equation 3: Flux=A*Pe-mes*Ci 3) where Flux is equal to the portal blood flow (estimated at 1 ml/min in the rat)×the steady state mesenteric blood concentration of the peptide analogs, A is the absorptive area of the intestine (estimated at 12.56 cm^2 in the rat intestine), Pe-mes is the mesenteric Permeability (cm/sec), and Ci is the starting concentration of drug in the perfusate (ug/ml).

In the case of `Cc1ccc(C[C@H](NC(=O)[C@@H](C)NC(=O)[C@@H]2CCCN2C(=O)[C@@H]2C[C@@H]3CCCC[C@@H]3N2C(=O)[C@H](N)CCCN=C(N)N)C(N)=O)cc1` [rOicPaF(p-Me), D-Arg-Oic-Pro-D-Ala-Phe(p-Me)] (HELM PEPTIDE1{[dR].[O=C([C@@H]1C[C@@H]2CCCC[C@@H]2N1[*:1])[*:2]].P.[dA].[Cc1ccc(C[C@H](N[*:1])C(=O)[*:2])cc1].[am]}$$$$V2.0), the Ki [1] is reported as 6.4 to 10.6 µM, the half-life at 0.1 mg/ml ([2]; male, Sprague Dawley, intestinal (jejunal) homogenate, pH 6.5, 37° C., read-out: t1/2 (min) Intestinal Homogenate) is reported as 757 min and the “stability in intestinal homogenate (FIG. 12)” value [2] is reported as “most stable”. It also gave a half-life at 0.1 mg/ml [3] of 363 min, a half-life at 0.1 mg/ml ([4]; male, Sprague Dawley, intestinal (jejunal) perfusate, pH 6.5, rat, read-out: t1/2 (min) Intestinal Perfusate) of 314 min and a Papp ([5]; male, Sprague-Dawley, other: in situ jejunal perfusion, pH 6.5, from portal vein plasma during perfusion, read-out: Permeability (mesenteric)) of 0.309 ×10⁻⁶ cm/s. The Papp ([5]; male, Sprague-Dawley, other: in situ jejunal perfusion, pH 6.5, rat jejunal in situ perfusion, read-out: Permeability (in situ)) was 1 ×10⁻⁶ cm/s.
With `C[C@@H](NC(=O)[C@@H]1CCCN1C(=O)[C@@H]1C[C@@H]2CCCC[C@@H]2N1C(=O)[C@H](N)CCCNC(=N)N)C(=O)N[C@@H](Cc1ccccc1)C(N)=O` [rOicPaF] (HELM PEPTIDE1{[dR].[O=C([C@@H]1C[C@@H]2CCCC[C@@H]2N1[*:1])[*:2]].P.[dA].F.[am]}$$$$V2.0) the “stability in intestinal homogenate (FIG. 12)” value [2] was “most stable”, the “t1/2 (min) Intestinal Homogenate” value ([2]; 37° C.) was “stable” and the half-life [3] was 604 min. For the same compound, the “t1/2 (min) Intestinal Perfusate” value [4] was “stable”, the Papp ([5]; from portal vein plasma during perfusion, read-out: Permeability (mesenteric)) was 0.139 ×10⁻⁶ cm/s and the Papp ([5]; rat jejunal in situ perfusion, read-out: Permeability (in situ)) was 6.2 ×10⁻⁶ cm/s.
